According to patent US8178077B2, “Drug development target protein and target gene, and method of screening” (Reverse Proteomics Research Institute Co., Ltd., priority 2004, dated 2012):

Experiments:
[1] = target: T1, FLJ20589 clone-derived protein (human hippocalcin-like protein 1, VILIP-3) (Homo sapiens, UniProt P37235); assay: SEC/MS interaction analysis (size exclusion spin column and mass analysis) with FLJ20589 clone-derived protein; assay type: binding
T1 construct: A human full-length cDNA clone was expressed as a protein with an N-terminal His tag; His tag (N); made in house; host or cells: Escherichia coli BL21star(DE3)pLysS (pDEST17 Gateway expression plasmid)

[2] = target: T2, FLJ39196 clone-derived protein (human neurocalcin δ) (Homo sapiens, UniProt P61601); assay: SEC/MS interaction analysis (size exclusion spin column and mass analysis) with FLJ39196 clone-derived protein; assay type: binding
T2 construct: A human full-length cDNA clone was expressed as a protein with an N-terminal His tag; His tag (N); made in house; host or cells: Escherichia coli BL21star(DE3)pLysS (pDEST17 Gateway expression plasmid)
Summary of the method: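 Unmodified, non-immobilized protein was mixed with compound and separated by size exclusion on 384-well Unifilter 100 spin columns packed with 10 μL Bio-Gel P6. The protein-fraction filtrate was collected in 50% acetonitrile, deproteinized, concentrated, redissolved in 10 μL of 50% methanol, and 2 μL was injected for ESI mass analysis of compound spectral intensity.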

[3] = protein 0 μM (protein-free reference), compound 1 μM
[4] = protein 0 μM (protein-free reference), compound 10 μM
[5] = protein 0 μM (protein-free reference), compound 100 μM
[6] = protein 0 μM (protein-free reference), compound 250 μM
[7] = protein 23.75 μM, compound 1 μM
[8] = protein 23.75 μM, compound 10 μM
[9] = protein 23.75 μM, compound 100 μM
[10] = protein 23.75 μM, compound 250 μM
[11] = protein 47.5 μM, compound 10 μM
[12] = protein 47.5 μM, compound 100 μM
[13] = protein 47.5 μM, compound 250 μM

SMILES: c1ccc(-c2ccc(C(c3ccccc3)n3ccnc3)cc2)cc1 (stereo not drawn) [Bifonazole]
- spectral intensity of the compound in the SEC spin column filtrate (protein fraction) [1, 3]: 2704636
- spectral intensity of the compound in the SEC spin column filtrate (protein fraction) [1, 4]: 2935358
- spectral intensity of the compound in the SEC spin column filtrate (protein fraction) [1, 5]: 2558136
- spectral intensity of the compound in the SEC spin column filtrate (protein fraction) [1, 6]: 3779926
- spectral intensity of the compound in the SEC spin column filtrate (protein fraction) [1, 7]: 2343078
- spectral intensity of the compound in the SEC spin column filtrate (protein fraction) [1, 8]: 2189489
- spectral intensity of the compound in the SEC spin column filtrate (protein fraction) [1, 9]: 3826699
- spectral intensity of the compound in the SEC spin column filtrate (protein fraction) [1, 10]: 3607174
- spectral intensity of the compound in the SEC spin column filtrate (protein fraction) ([1]; protein 47.5 μM, compound 1 μM): 1367901
- spectral intensity of the compound in the SEC spin column filtrate (protein fraction) [1, 11]: 2513645
- spectral intensity of the compound in the SEC spin column filtrate (protein fraction) [1, 12]: 8024232
- spectral intensity of the compound in the SEC spin column filtrate (protein fraction) [1, 13]: 28949362
- spectral intensity of the compound in the SEC spin column filtrate (protein fraction) [2, 3]: 32068857
- spectral intensity of the compound in the SEC spin column filtrate (protein fraction) [2, 4]: 34579053
- spectral intensity of the compound in the SEC spin column filtrate (protein fraction) [2, 5]: 30705006
- spectral intensity of the compound in the SEC spin column filtrate (protein fraction) [2, 6]: 32278650
- spectral intensity of the compound in the SEC spin column filtrate (protein fraction) [2, 7]: 27516354
- spectral intensity of the compound in the SEC spin column filtrate (protein fraction) [2, 8]: 30253800
- spectral intensity of the compound in the SEC spin column filtrate (protein fraction) [2, 9]: 60323012
- spectral intensity of the compound in the SEC spin column filtrate (protein fraction) [2, 10]: 85169446
- spectral intensity of the compound in the SEC spin column filtrate (protein fraction) ([2]; protein 47.5 μM, compound 1 μM): 33844567
- spectral intensity of the compound in the SEC spin column filtrate (protein fraction) [2, 11]: 38342358
- spectral intensity of the compound in the SEC spin column filtrate (protein fraction) [2, 12]: 152159135
- spectral intensity of the compound in the SEC spin column filtrate (protein fraction) [2, 13]: 322219706
